Assay results as given in US20240190860A1, “8-CYCLO-SUBSTITUTED QUINAZOLINE DERIVATIVES AS LPA RECEPTOR 2 INHIBITORS” (CHIESI FARMACEUTICI S.p.A., priority 2021, published 2024).

Target: T1, human recombinant LPA2 expressed in CHO cells (Homo sapiens, UniProt Q9HBW0)
T1 construct: expressed in transfected cells; host or cells: CHO cells (CHO-hLPA2 cell line)
Experiment: FLIPR calcium mobilization assay, LPA2 antagonism in CHO-hLPA2 cells
Assay type: cell-based
Details: CHO-hLPA2 cells, inhibition of LPA EC80 Ca2+ response, 30 min pre-incubation; read-out: LPA2 IC50
Experimental: The effectiveness of compounds of the present invention as LPA2 antagonist can be determined at the human recombinant LPA2 expressed in CHO cells, using a FLIPR assay in 384 well format.
CHO-hLPA2 cell lines are cultured in a humidified incubator at 5% C02 in DMEM/F-12 (1:1) MIXTURE with 2 mM Glutamax, supplemented with 10% of Foetal Bovine Serum, 1 mM Sodium Pyruvate, 11 mM Hepes and 1× Penicillin/Streptomycin. CHO hLPA2 cells are seeded into black walled clear-bottom 384-well plates (#781091, Greiner Bio-One GmbH) at a density of 7,500 cells per well in 50 μl culture media and grown overnight in a 37° C. humidified CO2-incubator. Serial dilutions (1:3 or 1:4, 11 points CRC) of compounds are performed in 100% DMSO at 200× the final concentration. The compounds are diluted 1:50 prior to the experiment with Assay Buffer (20 mM HEPES, 145 mM NaCl, 5 mM KCl, 5.5 mM glucose, 1 mM MgCl2 and 2 mM CaCl2, pH 7.4 containing 0.01% Pluronic F-127) to obtain a solution corresponding to […] the final concentration in the assay (4×, 2% DMSO). The final concentration of DMSO in the assay will be 0.5% in each well. Medium is removed by aspiration and cells are then incubated with 30 μl of a loading solution containing 5 μM of the cytoplasmic Ca2+ indicator Cal-520 AM in Assay Buffer containing 2.5 mM probenecid for 30 min at 37° C. incubator (cell loading). The loaded cell plates are transferred into the FLIPR instrument and calcium responses are monitored during the on-line addition protocols. For testing of compounds, after the cell loading, 10 μl/well of 4× antagonists' solution was added onto the cells. After 30 min pre-incubation (at 37° C.), 10 μl/well of 5× concentrated LPA EC80 was added and Ca2+ mobilization responses was followed during the on-line addition protocol. Intracellular peak fluorescence values subtracted by baseline fluorescence are exported and analysed to determine IC50 values, respectively. The calcium response is expressed as percentage of the maximal inhibition of the EC80 agonist response.
The raw data (peak height expressed as relative fluorescence units) are normalized and transformed into “percent of inhibition”. Curve fitting and pIC50 (−LogIC50) estimations are carried out using a four-parameter logistic model using XLfit Software.

T1 sequence (Q9HBW0 whole entry): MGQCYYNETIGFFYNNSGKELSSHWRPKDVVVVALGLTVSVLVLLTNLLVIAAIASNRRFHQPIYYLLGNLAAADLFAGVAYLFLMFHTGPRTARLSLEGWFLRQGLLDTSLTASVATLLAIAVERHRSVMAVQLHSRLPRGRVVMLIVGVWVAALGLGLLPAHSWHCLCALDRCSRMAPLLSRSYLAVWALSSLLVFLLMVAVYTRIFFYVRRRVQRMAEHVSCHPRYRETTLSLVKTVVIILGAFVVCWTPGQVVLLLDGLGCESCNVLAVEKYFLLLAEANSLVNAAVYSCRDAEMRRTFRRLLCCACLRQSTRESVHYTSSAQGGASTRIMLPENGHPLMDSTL

| IC50 [nM] | SMILES |
| --- | --- |
| < 10 | COC(=O)Nc1nc(C)c(S(=O)(=O)N2CCN(C[C@H](C)Nc3ncnc4c(-c5cncc(CN6CCCC6)c5)cccc34)CC2)s1 [Example 25, methyl N-[4-methyl-5-({4-[(2S)-2-[(8-{5-[(pyrrolidin-1-yl)methyl]pyridin-3-yl}quinazolin-4-yl)amino]propyl]piperazin-1-yl}sulfonyl)-1,3-thiazol-2-yl]carbamate] |
| < 10 | COC(=O)Nc1nc(C)c(S(=O)(=O)N2CCN(C[C@H](C)Nc3ncnc4c(-c5ccc(N(C)C)nc5)cccc34)CC2)s1 [Example 26, methyl N-[5-({4-[(2S)-2-({8-[6-(dimethylamino)pyridin-3-yl]quinazolin-4-yl}amino)propyl]piperazin-1-yl}sulfonyl)-4-methyl-1,3-thiazol-2-yl]carbamate] |
| < 10 | COC(=O)Nc1nc(C)c(S(=O)(=O)N2CCN(C[C@H](C)Nc3ncnc4c(-c5c(C)n[nH]c5C)cccc34)CC2)s1 [Example 27, methyl N-[5-({4-[(2S)-2-{[8-(3,5-dimethyl-1H-pyrazol-4-yl)quinazolin-4-yl]amino}propyl]piperazin-1-yl}sulfonyl)-4-methyl-1,3-thiazol-2-yl]carbamate] |
| < 10 | COC(=O)Nc1nc(C)c(S(=O)(=O)N2CCN(C[C@H](C)Nc3ncnc4c(-c5ccc(C)nc5)cccc34)CC2)s1 [Example 28, methyl N-[4-methyl-5-({4-[(2S)-2-{[8-(6-methylpyridin-3-yl)quinazolin-4-yl]amino}propyl]piperazin-1-yl}sulfonyl)-1,3-thiazol-2-yl]carbamate] |
| < 10 | COC(=O)Nc1nc(C)c(S(=O)(=O)N2CCN(C[C@H](C)Nc3ncnc4c(-c5ccccn5)cccc34)CC2)s1 [Example 29, methyl N-[4-methyl-5-({4-[(2S)-2-{[8-(pyridin-2-yl)quinazolin-4-yl]amino}propyl]piperazin-1-yl}sulfonyl)-1,3-thiazol-2-yl]carbamate] |
| < 10 | COC(=O)Nc1nc(C)c(S(=O)(=O)N2CCN(C[C@H](C)Nc3ncnc4c(-c5cn(C)nc5C(F)(F)F)cccc34)CC2)s1 [Example 30, methyl N-[4-methyl-5-({4-[(2S)-2-({8-[1-methyl-3-(trifluoromethyl)-1H-pyrazol-4-yl]quinazolin-4-yl}amino)propyl]piperazin-1-yl}sulfonyl)-1,3-thiazol-2-yl]carbamate] |
| < 10 | C[C@@H](CN1CCN(S(=O)(=O)c2ccc(Cl)c(Cl)c2)CC1)Nc1ncnc2c(-c3cccnc3)cccc12 [Example 31, N-[(2S)-1-[4-(3,4-dichlorobenzenesulfonyl)piperazin-1-yl]propan-2-yl]-8-(pyridin-3-yl)quinazolin-4-amine] |
| < 10 | CC(=O)Nc1nc(C)c(S(=O)(=O)N2CCN(C[C@H](C)Nc3ncnc4c(-c5cccnc5)cccc34)CC2)s1 [Example 32, N-[4-methyl-5-({4-[(2S)-2-{[8-(pyridin-3-yl)quinazolin-4-yl]amino}propyl]piperazin-1-yl}sulfonyl)-1,3-thiazol-2-yl]acetamide] |
| < 10 | Cc1cc(C(=O)Nc2nc(C)c(S(=O)(=O)N3CCN(C[C@H](C)Nc4ncnc5c(-c6cccnc6)cccc45)CC3)s2)no1 [Example 33, 5-methyl-N-[4-methyl-5-({4-[(2S)-2-{[8-(pyridin-3-yl)quinazolin-4-yl]amino}propyl]piperazin-1-yl}sulfonyl)-1,3-thiazol-2-yl]-1,2-oxazole-3-carboxamide] |
| 10 to 100 | COC(=O)Nc1nc(C)c(S(=O)(=O)N2CCN(C[C@H](C)Nc3ncnc4c(-c5cnc(C)nc5)cccc34)CC2)s1 [Example 34, methyl N-[4-methyl-5-({4-[(2S)-2-{[8-(2-methylpyrimidin-5-yl)quinazolin-4-yl]amino}propyl]piperazin-1-yl}sulfonyl)-1,3-thiazol-2-yl]carbamate] |
| < 10 | COC(=O)Nc1nc(C)c(S(=O)(=O)N2CCN(C[C@H](C)Nc3ncnc4c(-c5cccc(N6CCN(C)CC6)c5)cccc34)CC2)s1 [Example 35, methyl N-[4-methyl-5-({4-[(2S)-2-({8-[3-(4-methylpiperazin-1-yl)phenyl]quinazolin-4-yl}amino)propyl]piperazin-1-yl}sulfonyl)-1,3-thiazol-2-yl]carbamate] |
| < 10 | COC(=O)Nc1nc(C)c(S(=O)(=O)N2CCN(C[C@H](C)Nc3ncnc4c(-c5ccc(N6CCN(C)CC6)cc5)cccc34)CC2)s1 [Example 36, methyl N-[4-methyl-5-({4-[(2S)-2-({8-[4-(4-methylpiperazin-1-yl)phenyl]quinazolin-4-yl}amino)propyl]piperazin-1-yl}sulfonyl)-1,3-thiazol-2-yl]carbamate] |
| < 10 | CC(=O)Nc1ncc(S(=O)(=O)N2CCN(C[C@H](C)Nc3ncnc4c(-c5cccnc5)cccc34)CC2)s1 [Example 37, N-[5-({4-[(2S)-2-{[8-(pyridin-3-yl)quinazolin-4-yl]amino}propyl]piperazin-1-yl}sulfonyl)-1,3-thiazol-2-yl]acetamide] |
| < 10 | C[C@@H](CN1CCN(S(=O)(=O)c2ccc3[nH]c(=O)sc3c2)CC1)Nc1ncnc2c(-c3cccnc3)cccc12 [Example 38, 6-({4-[(2S)-2-{[8-(pyridin-3-yl)quinazolin-4-yl]amino}propyl]piperazin-1-yl}sulfonyl)-2,3-dihydro-1,3-benzothiazol-2-one] |
| 10 to 100 | Cc1nc(NCCN(C)C)sc1S(=O)(=O)N1CCN(C[C@H](C)Nc2ncnc3c(-c4c(C)n[nH]c4C)cccc23)CC1 [Example 39, 8-(3,5-dimethyl-1H-pyrazol-4-yl)-N-[(2S)-1-{4-[(2-{[2-(dimethylamino)ethyl]amino}-4-methyl-1,3-thiazol-5-yl)sulfonyl]piperazin-1-yl}propan-2-yl]quinazolin-4-amine] |
| < 10 | COC(=O)Nc1nc(C)c(S(=O)(=O)N2CCN(C[C@H](C)Nc3ncnc4c(-c5cncnc5)cccc34)CC2)s1 [Example 40, methyl N-[4-methyl-5-({4-[(2S)-2-{[8-(pyrimidin-5-yl)quinazolin-4-yl]amino}propyl]piperazin-1-yl}sulfonyl)-1,3-thiazol-2-yl]carbamate] |
| 10 to 100 | COC(=O)Nc1nc(C)c(S(=O)(=O)N2CCN(C[C@H](C)Nc3ncnc4c(C5CC5)cccc34)CC2)s1 [Example 41, methyl N-[5-({4-[(2S)-2-[(8-cyclopropylquinazolin-4-yl)amino]propyl]piperazin-1-yl}sulfonyl)-4-methyl-1,3-thiazol-2-yl]carbamate] |
| 10 to 100 | CC(=O)Nc1cc(F)c(S(=O)(=O)N2CCN(C[C@H](C)Nc3ncnc4c(-c5cccnc5)cccc34)CC2)cc1C [Example 42, N-[5-fluoro-2-methyl-4-({4-[(2S)-2-{[8-(pyridin-3-yl)quinazolin-4-yl]amino}propyl]piperazin-1-yl}sulfonyl)phenyl]acetamide] |
| < 10 | CC(=O)N1CCc2cc(S(=O)(=O)N3CCN(C[C@H](C)Nc4ncnc5c(-c6cccnc6)cccc45)CC3)ccc21 [Example 43, 1-[5-({4-[(2S)-2-{[8-(pyridin-3-yl)quinazolin-4-yl]amino}propyl]piperazin-1-yl}sulfonyl)-2,3-dihydro-1H-indol-1-yl]ethan-1-one] |
| < 10 | COC(=O)Nc1nc(C)c(S(=O)(=O)N2CCN(C[C@H](C)Nc3ncnc4c(-c5ccnc(N6CCN(C)CC6)c5)cccc34)CC2)s1 [Example 44, methyl N-[4-methyl-5-({4-[(2S)-2-({8-[2-(4-methylpiperazin-1-yl)pyridin-4-yl]quinazolin-4-yl}amino)propyl]piperazin-1-yl}sulfonyl)-1,3-thiazol-2-yl]carbamate] |
| < 10 | C[C@@H](CN1CCN(S(=O)(=O)c2ccc3[nH]c(=O)sc3c2)CC1)Nc1ncnc2c(-c3cccc(CN(C)C)c3)cccc12 [Example 45, 6-({4-[(2S)-2-[(8-{3-[(dimethylamino)methyl]phenyl}quinazolin-4-yl)amino]propyl]piperazin-1-yl}sulfonyl)-2,3-dihydro-1,3-benzothiazol-2-one] |
| < 10 | C[C@@H](CN1CCN(S(=O)(=O)c2ccc(Cl)c(Cl)c2)CC1)Nc1ncnc2c(-c3cccc(CN(C)C)c3)cccc12 [Example 46, N-[(2S)-1-[4-(3,4-dichlorobenzenesulfonyl)piperazin-1-yl]propan-2-yl]-8-{3-[(dimethylamino)methyl]phenyl}quinazolin-4-amine] |
| < 10 | COC(=O)Nc1ncc(S(=O)(=O)N2CCN(C[C@H](C)Nc3ncnc4c(-c5cccnc5)cccc34)CC2)s1 [Example 47, methyl N-[5-({4-[(2S)-2-{[8-(pyridin-3-yl)quinazolin-4-yl]amino}propyl]piperazin-1-yl}sulfonyl)-1,3-thiazol-2-yl]carbamate] |
